Test results as given in patent US9510594B2, “Use of SDHI fungicides on conventionally bred ASR-tolerant, stem canker resistant and/or frog-eye leaf spot resistant soybean varieties” (BAYER INTELLECTUAL PROPERTY GMBH, priority 2011, dated 2016).

System: Phakopsora pachyrhizi
Test: Soybean rust greenhouse test: preventive spray of young soybean plants, ABBOTT % efficacy, Colby comparison
Assay type: in vivo
Conditions: for Efficacy: fungicide alone, susceptible soybean variety (Miyagishirome), evaluated 11 days after inoculation
Description: One susceptible (Miyagishirome) and soybean varieties tolerant to soybean rust (Phakospora pachyrhizi) (TMG 801 and TMG 803) were cultivated in greenhouse up to 1.5-leaf stage. A suitable preparation of SDHI fungicide was produced by mixing 1 part per weight of the SDHI ingredient with 28.5 parts by weight of acetone as solvent and 1.5 parts by weight of polyoxyethylene alkyl phenyl ether as emulsifier. The concentrate was diluted with water to the desired concentrations.
Young plants of the susceptible and tolerant soybean varieties were sprayed with the preparation of the SDHI fungicide at the stated rate of application to evaluate the activity in controlling Phakopsora pachyrhizi.
One day after spraying, soybean plants were inoculated with an aqueous spore suspension of the causal agent of soybean rust (Phakopsora pachyrhizi). Plants were then placed in a greenhouse at approximately 20 ° C. and a relative atmospheric humidity of approximately 80%. The following trial schedule was applied:
Plants were evaluated 11 days after inoculation. The percentage of infected leaf area was determined visually. The results were calculated according to ABBOTT (% efficacy). 0% means an efficacy which corresponds to that of the control, while an efficacy of 100% means that no disease was observed.
The expected efficiencies for the SDHI fungicide and ASR-tolerant variety combinations were determined according to Colby's formula and compared to the observed efficiencies (Colby, S. R. (1967) Calculating synergistic and antagonistic responses of herbicide combinations, Weeds, 15: 20-22): E=x+y−xy/100
Wherein E is the expected efficacy as a percent of the check when using the combination of a fungicide and ASR-tolerant variety; x is the efficacy of the percent check when using the fungicide; y is the efficacy of the percent check when using the ASR-tolerant variety.
By Comparison of the expected efficacy and the observed efficacy, the synergistic effect can be discerned. If the observed percent efficacy is higher than the calculated expected percent efficacy there is a synergistic effect.

[1] = fungicide + tolerant soybean variety TMG 803, 0.2 ppm a.i.
[2] = fungicide + tolerant soybean variety TMG 803, 1 ppm a.i.
[3] = fungicide + tolerant soybean variety TMG 803, 5 ppm a.i.
[4] = fungicide + tolerant soybean variety TMG 803, 10 ppm a.i.
[5] = fungicide + tolerant soybean variety TMG 803, 25 ppm a.i.
[6] = fungicide + tolerant soybean variety TMG 803, 50 ppm a.i.
[7] = fungicide + tolerant soybean variety TMG 803, 100 ppm a.i.
[8] = fungicide + tolerant soybean variety TMG 801, 0.2 ppm a.i.
[9] = fungicide + tolerant soybean variety TMG 801, 1 ppm a.i.
[10] = fungicide + tolerant soybean variety TMG 801, 5 ppm a.i.
[11] = fungicide + tolerant soybean variety TMG 801, 10 ppm a.i.
[12] = fungicide + tolerant soybean variety TMG 801, 25 ppm a.i.
[13] = fungicide + tolerant soybean variety TMG 801, 50 ppm a.i.

Which results are given for Cn1cc(C(=O)Nc2ccc(F)cc2-c2ccc(Cl)c(Cl)c2)c(C(F)F)n1 [Bixafen, N-(3′,4′-dichloro-5-fluoro-1,1′-biphenyl-2-yl)-3-(difluoromethyl)-1-methyl-1H-pyrazole-4-carboxamide]?
synergistic effect (applied to TMG 803, concentrations from 100 ppm a.i. to 25 ppm a.i.): highest synergistic effect; Actual efficacy [1]: 60%; Expected value, calculated using Colby's formula [1]: 55%; Actual efficacy [2]: 70%; Expected value, calculated using Colby's formula [2]: 58%; Actual efficacy [3]: 75%; Expected value, calculated using Colby's formula [3]: 64%; Actual efficacy [4]: 80%; Expected value, calculated using Colby's formula [4]: 73%; Actual efficacy [5]: 96%; Expected value, calculated using Colby's formula [5]: 80%; Actual efficacy [6]: 98%; Expected value, calculated using Colby's formula [6]: 82%; Actual efficacy [7]: 99%; Expected value, calculated using Colby's formula [7]: 78%; Efficacy (0.2 ppm a.i.): 0%; Efficacy (1 ppm a.i.): 7%; Efficacy (5 ppm a.i.): 20%; Efficacy (10 ppm a.i.): 40%; Efficacy (25 ppm a.i.): 55%; Efficacy (50 ppm a.i.): 60%; Efficacy (100 ppm a.i.): 50%

Cn1cc(C(=O)Nc2ccccc2-c2cc(F)c(F)c(F)c2)c(C(F)F)n1 [Fluxapyroxad, 3-(difluoromethyl)-1-methyl-N-(3′,4′,5′-trifluorobiphenyl-2-yl)-1H-pyrazole-4-carboxamide] was tested. Which synergistic effect (1 ppm a.i. applied to TMG 803, compared over all fungicides and rates) did it give?
The synergistic effect was “most pronounced synergistic effect”.

What about the Actual efficacy [1] of the same compound?
The Actual efficacy was 30%.

What about the “Expected value, calculated using Colby's formula” value (from here on “Expected value, calculated”) [1] of the same compound?
Its value is 20%.

What about the Actual efficacy [2] of the same compound?
The Actual efficacy was 65%.

What about the “Expected value, calculated” value [2] of the same compound?
The value was 26%.

What about the Actual efficacy [3] of the same compound?
Its Actual efficacy is 70%.

What about the “Expected value, calculated” value [3] of the same compound?
The value was 68%.

What about the Actual efficacy [4] of the same compound?
The Actual efficacy was 80%.

And the “Expected value, calculated” value [4]?
The value was 76%.

What about the Actual efficacy [5] of the same compound?
The Actual efficacy was 97%.

What about the “Expected value, calculated” value [5] of the same compound?
Its value is 98%.

And the Efficacy (0.2 ppm a.i.)?
Its Efficacy is 0%.

What about the Efficacy (1 ppm a.i.) of the same compound?
Its Efficacy is 7%.

And the Efficacy (5 ppm a.i.)?
Its Efficacy is 60%.

What about the Efficacy (10 ppm a.i.) of the same compound?
The Efficacy was 70%.

And the Efficacy (25 ppm a.i.)?
Its Efficacy is 98%.

How did the Actual efficacy [1] turn out when CC(C)C1C2CCC1c1c(NC(=O)c3cn(C)nc3C(F)F)cccc12 (stereo not drawn) [Isopyrazam] was run?
The Actual efficacy was 55%.

What about the “Expected value, calculated” value [1] of the same compound?
The value was 30%.

And the Actual efficacy [2]?
Its Actual efficacy is 80%.

And the “Expected value, calculated” value [2]?
The value was 65%.

And the Efficacy (0.2 ppm a.i.)?
The Efficacy was 0%.

And the Efficacy (1 ppm a.i.)?
Its Efficacy is 50%.

What does the source list for Cc1nn(C)c(F)c1C(=O)Nc1ccccc1C(C)CC(C)C (stereo not drawn) [Penflufen, N-[2-(1,3-dimethylbutyl)phenyl]-5-fluor-1,3-dimethyl-1H-pyrazole-4-carboxamide]?
deviation of the actual efficacy from the expected value (10 ppm a.i., TMG 801 or TMG 803): highest deviations of the actual efficacy from the expected value; Actual efficacy [8]: 65%; Expected value, calculated using Colby's formula [8]: 50%; Actual efficacy [9]: 70%; Expected value, calculated using Colby's formula [9]: 50%; Actual efficacy [10]: 70%; Expected value, calculated using Colby's formula [10]: 60%; Actual efficacy [11]: 92%; Expected value, calculated using Colby's formula [11]: 60%; Actual efficacy [12]: 98%; Expected value, calculated using Colby's formula [12]: 78%; Actual efficacy [13]: 100%; Expected value, calculated using Colby's formula [13]: 80%; Actual efficacy [1]: 70%; Expected value, calculated using Colby's formula [1]: 50%; Actual efficacy [2]: 65%; Expected value, calculated using Colby's formula [2]: 50%; Actual efficacy [3]: 95%; Expected value, calculated using Colby's formula [3]: 60%; Actual efficacy [4]: 98%; Expected value, calculated using Colby's formula [4]: 60%; Actual efficacy [5]: 97%; Expected value, calculated using Colby's formula [5]: 78%; Actual efficacy [6]: 100%; Expected value, calculated using Colby's formula [6]: 80%; Efficacy (0.2 ppm a.i.): 0%; Efficacy (1 ppm a.i.): 0%; Efficacy (5 ppm a.i.): 20%; Efficacy (10 ppm a.i.): 20%; Efficacy (25 ppm a.i.): 55%; Efficacy (50 ppm a.i.): 60%

With Cn1cc(C(=O)Nc2ccccc2C2CC2C2CC2)c(C(F)F)n1 (stereo not drawn) [Sedaxane] as the compound, how does the synergistic effect (applied to TMG 803, 0.2 ppm a.i. to 1 ppm a.i. versus 5 ppm a.i. to 25 ppm a.i.) read?
Its synergistic effect is “higher synergism”.

What about the Actual efficacy [9] of the same compound?
The Actual efficacy was 82%.

And the “Expected value, calculated” value [9]?
Its value is 65%.

What about the Actual efficacy [10] of the same compound?
The Actual efficacy was 90%.

And the “Expected value, calculated” value [10]?
Its value is 79%.

What about the Actual efficacy [11] of the same compound?
Its Actual efficacy is 98%.

And the “Expected value, calculated” value [11]?
The value was 90%.

And the Actual efficacy [12]?
The Actual efficacy was 99%.

What about the “Expected value, calculated” value [12] of the same compound?
Its value is 99%.

What about the Actual efficacy [1] of the same compound?
Its Actual efficacy is 50%.

And the “Expected value, calculated” value [1]?
The value was 30%.

What about the Actual efficacy [2] of the same compound?
Its Actual efficacy is 60%.

What about the “Expected value, calculated” value [2] of the same compound?
Its value is 30%.

What about the Actual efficacy [3] of the same compound?
The Actual efficacy was 75%.

What about the “Expected value, calculated” value [3] of the same compound?
The value was 58%.

And the Actual efficacy [4]?
Its Actual efficacy is 95%.

What about the “Expected value, calculated” value [4] of the same compound?
The value was 79%.

And the Actual efficacy [5]?
The Actual efficacy was 100%.

What about the “Expected value, calculated” value [5] of the same compound?
The value was 99%.

And the Efficacy (0.2 ppm a.i.)?
Its Efficacy is 0%.

What about the Efficacy (1 ppm a.i.) of the same compound?
Its Efficacy is 0%.

What about the Efficacy (5 ppm a.i.) of the same compound?
The Efficacy was 40%.

What about the Efficacy (10 ppm a.i.) of the same compound?
The Efficacy was 70%.

What about the Efficacy (25 ppm a.i.) of the same compound?
The Efficacy was 98%.
